Source: PubChem BioAssay AID2060618 (Molecular Pharmacology Branch, DTP, NCI, 2025)

Tested on: 454973-116-R2-J3-PDC spheroids, percent test/control viability
Assay: Anticancer human tumor 454973-116-R2-J3-PDC patient-derived pancreatic carcinoma cell line growth inhibition [CLK]
Settings: spheroids with HUVEC and MSC; for IC50: curve of first compound; for viability, T/C: stronger effect = lower value; active = viability on the fitted dose curve at most 10% of control; inactive = the rest
Procedure, shortened: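 Patient-derived tumor cells grown as complex spheroids with HUVEC endothelial cells and mesenchymal stem cells, treated with drug combinations. Concentrations descend in half-log steps from near clinical Cmax, or from 10 microM if Cmax unknown.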

[1] = second compound 0.0316 µM, first compound 0.00316 µM
[2] = second compound 0.0316 µM, first compound 0.01 µM
[3] = second compound 0.0316 µM, first compound 0.0316 µM
[4] = second compound 0.0316 µM, first compound 0.1 µM
[5] = second compound 0.0316 µM, first compound 0.316 µM
[6] = second compound 0.0316 µM, first compound 1 µM
[7] = second compound 0.1 µM, first compound 0.00316 µM
[8] = second compound 0.1 µM, first compound 0.01 µM
[9] = second compound 0.1 µM, first compound 0.0316 µM
[10] = second compound 0.1 µM, first compound 0.1 µM
[11] = second compound 0.1 µM, first compound 0.316 µM
[12] = second compound 0.1 µM, first compound 1 µM
[13] = second compound 0.316 µM, first compound 0.00316 µM
[14] = second compound 0.316 µM, first compound 0.01 µM
[15] = second compound 0.316 µM, first compound 0.0316 µM
[16] = second compound 0.316 µM, first compound 0.1 µM
[17] = second compound 0.316 µM, first compound 0.316 µM
[18] = second compound 0.316 µM, first compound 1 µM
[19] = second compound 1 µM, first compound 0.00316 µM
[20] = second compound 1 µM, first compound 0.01 µM
[21] = second compound 1 µM, first compound 0.0316 µM
[22] = second compound 1 µM, first compound 0.1 µM
[23] = second compound 1 µM, first compound 0.316 µM
[24] = second compound 1 µM, first compound 1 µM
[25] = second compound 3.16 µM, first compound 0.00316 µM
[26] = second compound 3.16 µM, first compound 0.01 µM
[27] = second compound 3.16 µM, first compound 0.0316 µM
[28] = second compound 3.16 µM, first compound 0.1 µM
[29] = second compound 3.16 µM, first compound 0.316 µM
[30] = second compound 3.16 µM, first compound 1 µM
[31] = second compound 10 µM, first compound 0.00316 µM
[32] = second compound 10 µM, first compound 0.01 µM
[33] = second compound 10 µM, first compound 0.0316 µM
[34] = second compound 10 µM, first compound 0.1 µM
[35] = second compound 10 µM, first compound 0.316 µM
[36] = second compound 10 µM, first compound 1 µM
[37] = second compound 0.0316 µM, first compound 3.16 µM
[38] = second compound 0.0316 µM, first compound 10 µM
[39] = second compound 0.1 µM, first compound 3.16 µM
[40] = second compound 0.1 µM, first compound 10 µM
[41] = second compound 0.316 µM, first compound 3.16 µM
[42] = second compound 0.316 µM, first compound 10 µM
[43] = second compound 1 µM, first compound 3.16 µM
[44] = second compound 1 µM, first compound 10 µM
[45] = second compound 3.16 µM, first compound 3.16 µM
[46] = second compound 3.16 µM, first compound 10 µM
[47] = second compound 10 µM, first compound 3.16 µM
[48] = second compound 10 µM, first compound 10 µM
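Note: spheroids exposed to compounds for 7 days before readout.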

CCc1c2c(nc3ccc(O)cc13)-c1cc3c(c(=O)n1C2)COC(=O)[C@]3(O)CC + CN1CCN(c2cc(C(=O)Nc3cc4cc(-c5cnn(C)c5)ccc4cn3)ccn2)CC1
< 0.00316 µM: IC50 (second compound 0.0316 µM) | IC50 (second compound 0.1 µM) | IC50 (second compound 0.316 µM) | IC50 (second compound 1 µM) | IC50 (second compound 3.16 µM) | IC50 (second compound 10 µM)
inactive: viability, T/C [1] 26.9% | viability, T/C [2] 17.1% | viability, T/C [3] 12.6% | viability, T/C [7] 21.8% | viability, T/C [8] 21.1% | viability, T/C [9] 9.73%
active: viability, T/C [4] 6.38% | viability, T/C [5] 3.17% | viability, T/C [6] 0.71% | viability, T/C [10] 3.23% | viability, T/C [11] 1.75% | viability, T/C [12] 0.31% | viability, T/C [13] 2.15% | viability, T/C [14] 3.91% | viability, T/C [15] 2.2% | viability, T/C [16] 0.98% | viability, T/C [17] 0.1% | viability, T/C [18] 0.1% | viability, T/C [19] 0.08% | viability, T/C [20] 0.1% | viability, T/C [21] 0.1% | viability, T/C [22] 0.05% | viability, T/C [23] 0.07% | viability, T/C [24] 0.09% | viability, T/C [25] 0.1% | viability, T/C [26] 0.13% | viability, T/C [27] 0.14% | viability, T/C [28] 0.11% | viability, T/C [29] 0.16% | viability, T/C [30] 0.15% | viability, T/C [31] 0.07% | viability, T/C [32] 0.12% | viability, T/C [33] 0.17% | viability, T/C [34] 0.18% | viability, T/C [35] 0.21% | viability, T/C [36] 0.18%

Cn1ncnc1[C@H]1c2n[nH]c(=O)c3cc(F)cc(c23)N[C@@H]1c1ccc(F)cc1 + CN1CCN(c2cc(C(=O)Nc3cc4cc(-c5cnn(C)c5)ccc4cn3)ccn2)CC1
inactive: viability, T/C (second compound 0.0316 µM, first compound 0.000316 µM) 93.9% | viability, T/C (second compound 0.0316 µM, first compound 0.001 µM) 99% | viability, T/C [1] 90.5% | viability, T/C [2] 92.9% | viability, T/C [3] 91.2% | viability, T/C [4] 85% | viability, T/C (second compound 0.1 µM, first compound 0.000316 µM) 75.4% | viability, T/C (second compound 0.1 µM, first compound 0.001 µM) 75% | viability, T/C [7] 83.2% | viability, T/C [8] 71.3% | viability, T/C [9] 59.1% | viability, T/C [10] 50.1%
active: viability, T/C (second compound 0.316 µM, first compound 0.000316 µM) 1.91% | viability, T/C (second compound 0.316 µM, first compound 0.001 µM) 2.28% | viability, T/C [13] 3.23% | viability, T/C [14] 4.91% | viability, T/C [15] 2.64% | viability, T/C [16] 2.84% | viability, T/C (second compound 1 µM, first compound 0.000316 µM) 0.1% | viability, T/C (second compound 1 µM, first compound 0.001 µM) 1.11% | viability, T/C [19] 0.09% | viability, T/C [20] 0.08% | viability, T/C [21] 0.09% | viability, T/C [22] 0.1% | viability, T/C (second compound 3.16 µM, first compound 0.000316 µM) 0.09% | viability, T/C (second compound 3.16 µM, first compound 0.001 µM) 0.12% | viability, T/C [25] 0.1% | viability, T/C [26] 1.05% | viability, T/C [27] 1.67% | viability, T/C [28] 0.12% | viability, T/C (second compound 10 µM, first compound 0.000316 µM) 0.11% | viability, T/C (second compound 10 µM, first compound 0.001 µM) 0.16% | viability, T/C [31] 0.17% | viability, T/C [32] 0.29% | viability, T/C [33] 0.12% | viability, T/C [34] 0.14%
< 0.000316 µM: IC50 (second compound 0.316 µM) | IC50 (second compound 1 µM) | IC50 (second compound 3.16 µM) | IC50 (second compound 10 µM)
> 0.1 µM: IC50 (second compound 0.0316 µM) | IC50 (second compound 0.1 µM)

Nc1ccn(C2OC(CO)C(O)C2(F)F)c(=O)n1 (stereo not drawn) + CN1CCN(c2cc(C(=O)Nc3cc4cc(-c5cnn(C)c5)ccc4cn3)ccn2)CC1
active: viability, T/C [15] 1.34% | viability, T/C [16] 3.55% | viability, T/C [17] 1.4% | viability, T/C [18] 1.47% | viability, T/C [41] 1.66% | viability, T/C [42] 1.1% | viability, T/C [21] 1.36% | viability, T/C [22] 0.1% | viability, T/C [23] 0.67% | viability, T/C [24] 0.06% | viability, T/C [43] 0.07% | viability, T/C [44] 1.87% | viability, T/C [27] 0.13% | viability, T/C [28] 0.16% | viability, T/C [29] 0.18% | viability, T/C [30] 0.15% | viability, T/C [45] 0.15% | viability, T/C [46] 0.15% | viability, T/C [33] 0.16% | viability, T/C [34] 0.66% | viability, T/C [35] 0.22% | viability, T/C [36] 1.09% | viability, T/C [47] 0.2% | viability, T/C [48] 1.04%
inactive: viability, T/C [3] 10.3% | viability, T/C [4] 9.2% | viability, T/C [5] 11.2% | viability, T/C [6] 10.4% | viability, T/C [37] 11% | viability, T/C [38] 12.3% | viability, T/C [9] 10.3% | viability, T/C [10] 10.5% | viability, T/C [11] 8.35% | viability, T/C [12] 11.8% | viability, T/C [39] 12.8% | viability, T/C [40] 10.7%
< 0.0316 µM: IC50 (second compound 0.0316 µM) | IC50 (second compound 0.1 µM) | IC50 (second compound 0.316 µM) | IC50 (second compound 1 µM) | IC50 (second compound 3.16 µM) | IC50 (second compound 10 µM)

O=c1[nH]cc(F)c(=O)[nH]1 + CN1CCN(c2cc(C(=O)Nc3cc4cc(-c5cnn(C)c5)ccc4cn3)ccn2)CC1
active: viability, T/C [15] 2.26% | viability, T/C [16] 2.2% | viability, T/C [17] 3.74% | viability, T/C [18] 2.11% | viability, T/C [41] 3.66% | viability, T/C [42] 2.07% | viability, T/C [21] 0.1% | viability, T/C [22] 0.11% | viability, T/C [23] 0.74% | viability, T/C [24] 0.06% | viability, T/C [43] 0.05% | viability, T/C [44] 0.08% | viability, T/C [27] 0.14% | viability, T/C [28] 0.39% | viability, T/C [29] 0.44% | viability, T/C [30] 0.1% | viability, T/C [45] 0.14% | viability, T/C [46] 0.59% | viability, T/C [33] 0.05% | viability, T/C [34] 0.14% | viability, T/C [35] 0.14% | viability, T/C [36] 0.17% | viability, T/C [47] 0.16% | viability, T/C [48] 0.17%
1.33 µM: IC50 (second compound 0.1 µM)
1.94 µM: IC50 (second compound 0.0316 µM)
inactive: viability, T/C [3] 93% | viability, T/C [4] 102% | viability, T/C [5] 95.2% | viability, T/C [6] 71.3% | viability, T/C [37] 30.6% | viability, T/C [38] 37.9% | viability, T/C [9] 73% | viability, T/C [10] 86.7% | viability, T/C [11] 73.5% | viability, T/C [12] 57.1% | viability, T/C [39] 27.7% | viability, T/C [40] 30.2%
< 0.0316 µM: IC50 (second compound 0.316 µM) | IC50 (second compound 1 µM) | IC50 (second compound 3.16 µM) | IC50 (second compound 10 µM)
